Read-outs that look alike come from different tables or passages of the source.
How the values were obtained:
[1] = test system: Mycobacterium tuberculosis H37Rv; format: in vivo
[2] = test system: cytochrome P450; settings: cited from earlier work
[3] = test system: Gram-positive and Gram-negative bacteria; settings: cited from earlier work
[4] = Pharmacokinetics of oxazolidinones after single oral dose, plasma LC/MS; format: in vivo, BALB/c mice
Method: Pharmacokinetics of oxazolidinones. Uninfected female BALB/c mice weighing approximately 20 g received single doses of SZD (50 mg/kg), LZD (100 mg/kg), TZD (10 or 20 mg/kg) or AZD (50 or 200 mg/kg). Three mice per dose per time point were sampled by cardiac puncture at 0.5, 1, 2, 4, 8 and 24 hours post-dose (plus an additional 16 hour time point for AZD). Plasma drug concentrations were quantified by a validated LC/MS method performed at AstraZeneca (for AZD only) (14) or Rutgers New Jersey Medical School (for other oxazolidinones). Standards for the different oxazolidinones were provided by the sponsors. At Rutgers, analytes of interest were extracted by combining 20 μl of mouse plasma with 20 μl of acetonitrole:water (1:1), and 180 μl of methanol:acetonitrile (1:1) containing 10 mg/ml of verapamil (Sigma-Aldrich) as internal standard. The mixture was vortexed and centrifuged, and 100 μL of the supernatant was recovered and combined with 10 μL of water for analysis. LC/MS-MS analysis was performed with an Agilent 1260 LC-system coupled to an AB Sciex 4000 Q-trap Mass Spectrometer (positive mode, electrospray ionization), and an Agilent column SB-C8, 2.1×30 mm, 3.5 μm, with the column temperature fixed at 24° C. Mobile phase A was 0.1% formic acid in 100% H2O and mobile phase B was 0.1% formic acid in 100% acetonitrile. Injection volumes were routinely 2 μl. The Mass Selective Detector was set to MRM (multiple reaction monitoring) mode using positive polarity ionization, monitoring for the ions of interest SZD (m/z 354.12/312.04), SZD-M1(370.13/238.12), LZD(338.00/235.00), and TZD(371.12/343.00) and the internal standard (m/z 455.4/165.2). The lower limit of quantification for all oxazolidinones was […]. PK parameters were determined by non-compartmental analysis using WinNonlin 6.4 (Certara, Princeton, NJ).

[5] = Example 1, lung, 1 month of treatment, D0 count 6.17±0.27, PMD 50 mg/kg, LZD 100 mg/kg, SZD 50 mg/kg
[6] = female, BALB/c, mouse, in vivo, single oral dose 50 mg/kg, mean, plasma, read-out: AUC0-24 hr
[7] = female, BALB/c, mouse, in vivo, single oral dose 50 mg/kg, mean, plasma, read-out: Cmax
[8] = female, BALB/c, mouse, in vivo, single oral dose 50 mg/kg, mean, plasma, read-out: Tmax
[9] = female, BALB/c, mouse, in vivo, single oral dose 50 mg/kg, mean, plasma, read-out: t1/2 (converted)
[10] = female, BALB/c, mouse, in vivo, po, 100 mg/kg
[11] = M1 metabolite after single oral dose of sutezolid 50 mg/kg, mean, plasma
[12] = female, BALB/c, mouse, in vivo, po, 10 mg/kg
[13] = female, BALB/c, mouse, in vivo, po, 20 mg/kg

In the case of `O=[N+]([O-])c1cn2c(n1)OCC(OCc1ccc(OC(F)(F)F)cc1)C2` (stereo in doubt) [PMD, (6S)-2-nitro-6-{[4-(trifluoromethoxy)benzyl]oxy}-6,7-dihydro-5H-imidazo[2,1-b][1,3]oxazine], the “Mean (±SD) log10 CFU count at M1” value [1, 5] is listed as 4.57 ± 0.22 log10 CFU, the “cytochrome P450 interactions” value [2] is listed as “no significant cytochrome P450 interactions” and the “activity against a broad range of Gram-positive and Gram-negative bacteria” value [3] is listed as “no significant activity”.

In the case of `O=C([C@@H](O)CO)N1CC=C(c2c(F)cc(N3C[C@H](COc4ccon4)OC3=O)cc2F)CC1` [AZD], the “predicted AUC0-24 h” value ([4]; 125 mg/kg dose, interpolated between the 50 and 200 mg/kg doses) is reported as 160000 to 190000 ng·h/mL, the AUC(0-t) [4, 6] is reported as 74800 ng·h/mL and the Cmax [4, 7] is reported as 20400 ng/mL. It also gave a Tmax [4, 8] of 42 min, a half-life [4, 9] of 144 min and an AUC(0-t) ([4]; female, BALB/c, mouse, in vivo, single oral dose 200 mg/kg, mean, plasma, read-out: AUC0-24 hr) of 220000 ng·h/mL. The Cmax ([4]; female, BALB/c, mouse, in vivo, single oral dose 200 mg/kg, mean, plasma, read-out: Cmax) was 31400 ng/mL, the Tmax ([4]; female, BALB/c, mouse, in vivo, single oral dose 200 mg/kg, mean, plasma, read-out: Tmax) was 42 min and the half-life ([4]; female, BALB/c, mouse, in vivo, single oral dose 200 mg/kg, mean, plasma, read-out: t1/2 (converted)) was 516 min.

In the case of `COc1nc2ccc(Br)cc2cc1[C@@H](c1ccccc1)[C@@](O)(CCN(C)C)c1cccc2ccccc12` [BDQ, (1R, 2S)-1-(6-bromo-2methoxy-3-quinolinyl)-4-(dimethylamino)-2-(1-naphthalenyl)-1-phenyl-2-butanol compound with fumaric acid (1:1)], the “Mean (±SD) log10 CFU count at M1” value [1, 5] is reported as 3.24 ± 0.25 log10 CFU.

Work on `CC(=O)NC[C@H]1CN(c2ccc(N3CCOCC3)c(F)c2)C(=O)O1` [LZD, (S)—N-[[3-[3-Fluoro-4-(4morpholinyl)phenyl]-2-oxo-5-oxazolidinyl]methyl]-acetamide] yielded a Cmax [4, 10] of 81900 ng/mL, a Tmax [4, 10] of 30 min and an AUC(0-t) ([4]; female, BALB/c, mouse, in vivo, po, 100 mg/kg, AUC0-24 h) of 244000 ng·h/mL. For the same compound, the AUC(0-t) ([4]; female, BALB/c, mouse, in vivo, po, 100 mg/kg, AUC0-24 hr) was 244000 ng·h/mL, the half-life ([4]; female, BALB/c, mouse, single oral dose 100 mg/kg, mean, plasma, read-out: t1/2 (converted)) was 180 min and the “Mean (±SD) log10 CFU count at M1” value ([1]; in vivo) was 4.97 ± 0.26 log10 CFU.

In the case of `CC(=O)NC[C@H]1CN(c2ccc(N3CCSCC3)c(F)c2)C(=O)O1` [SZD, sutezolid], the AUC(0-t) [4, 6] is reported as 3360 ng·h/mL, the Cmax [4, 7] is reported as 1290 ng/mL and the Tmax [4, 8] is reported as 30 min. For the same compound, the half-life [4, 9] was 168 min and the “Mean (±SD) log10 CFU count at M1” value [1, 5] was 3.85 ± 0.37 log10 CFU.

In the case of `CC(=O)NC[C@H]1CN(c2ccc(N3CC[S+]([O-])CC3)c(F)c2)C(=O)O1` [Sutezolid M1], the AUC0-24 hr [4, 11] is reported as 31945 ng·h/mL, the Cmax [4, 11] is reported as 15233 ng/mL and the Tmax [4, 11] is reported as 30 min. The “Cmax relative to SZD parent” value ([4]; after oral SZD 50 mg/kg) was “approximately 10 times” and the “mean AUC0-24 h relative to SZD parent” value ([4]; after oral SZD 50 mg/kg) was “approximately 10 times”.

In the case of `Cn1nnc(-c2ccc(-c3ccc(N4C[C@H](CO)OC4=O)cc3F)cn2)n1` [TZD, tedizolid], the AUC(0-t) ([4]; female, BALB/c, mouse, in vivo, 10 mg/kg, total drug AUC0-24 h) is reported as 40000 ng·h/mL, the Cmax [4, 12] is reported as 6420 ng/mL and the Tmax [4, 12] is reported as 42 min. It also gave a half-life [4, 12] of 180 min, an AUC(0-t) ([4]; female, BALB/c, mouse, in vivo, po, 10 mg/kg, AUC0-24 hr) of 40400 ng·h/mL and a Cmax [4, 13] of 11400 ng/mL. For the same compound, the Tmax [4, 13] was 30 min, the half-life [4, 13] was 234 min and the AUC(0-t) ([4]; female, BALB/c, mouse, in vivo, po, 20 mg/kg, AUC0-24 hr) was 77700 ng·h/mL.

From US20230414625A1, “Combination Antibacterial Composition and Short-Course Antibacterial Regimen” (The Global Alliance for TB Drug Development, Inc., priority 2015, published 2023)
